The structures appear in SMILES notation. Where only a bound is given, the exact number is not on record here.

For orientation: IC50 means the midpoint of a concentration-inhibition curve.

Test [1] has as its target T1, FAK (Homo sapiens, UniProt Q05397). As to the kind of experiment: Cell-based capture ELISA for inhibition of FAK autophosphorylation [pY397] in MiaPaCa2 cells. On the procedure: Cell-Based Assays for Inhibition of FAK Autophosphorylation: MiaPaCa2 and U87MG
ELISA kit from Invitrogen (KHO0441).
Reagents Provided in Biosource FAK [pY397]
The cells were then suspended in cell assay medium.
A general note: In an ELISA, binding on a coated surface is turned into a signal by an enzyme label.

In test [2] the target is T1, FAK. As to the kind of experiment: biochemical.
Where [3] appears, read: MIA-PaCa2 cells, + 50% mouse plasma (Table 3), read-out: Mean FAK Cell Mechanistic IC50 + 50% mP MIA-PaCa2.
Where [4] appears, read: MIA-PaCa2 cells, + 50% mouse plasma (Table 2), read-out: Mean FAK Cell Mechanistic IC50 + 50% mP MIA-PaCa2.
Setting [5] is: MIA-PaCa2 cells on fibronectin, 2 h, no plasma, read-out: Mean FAK Cell Mechanistic IC50 MIA-PaCa2.
Setting [6] is: MIA-PaCa2 cells, + 50% human plasma, read-out: Mean FAK Cell Mechanistic IC50 + 50% hP MIA-PaCa2.

T1 sequence (Q05397 whole entry): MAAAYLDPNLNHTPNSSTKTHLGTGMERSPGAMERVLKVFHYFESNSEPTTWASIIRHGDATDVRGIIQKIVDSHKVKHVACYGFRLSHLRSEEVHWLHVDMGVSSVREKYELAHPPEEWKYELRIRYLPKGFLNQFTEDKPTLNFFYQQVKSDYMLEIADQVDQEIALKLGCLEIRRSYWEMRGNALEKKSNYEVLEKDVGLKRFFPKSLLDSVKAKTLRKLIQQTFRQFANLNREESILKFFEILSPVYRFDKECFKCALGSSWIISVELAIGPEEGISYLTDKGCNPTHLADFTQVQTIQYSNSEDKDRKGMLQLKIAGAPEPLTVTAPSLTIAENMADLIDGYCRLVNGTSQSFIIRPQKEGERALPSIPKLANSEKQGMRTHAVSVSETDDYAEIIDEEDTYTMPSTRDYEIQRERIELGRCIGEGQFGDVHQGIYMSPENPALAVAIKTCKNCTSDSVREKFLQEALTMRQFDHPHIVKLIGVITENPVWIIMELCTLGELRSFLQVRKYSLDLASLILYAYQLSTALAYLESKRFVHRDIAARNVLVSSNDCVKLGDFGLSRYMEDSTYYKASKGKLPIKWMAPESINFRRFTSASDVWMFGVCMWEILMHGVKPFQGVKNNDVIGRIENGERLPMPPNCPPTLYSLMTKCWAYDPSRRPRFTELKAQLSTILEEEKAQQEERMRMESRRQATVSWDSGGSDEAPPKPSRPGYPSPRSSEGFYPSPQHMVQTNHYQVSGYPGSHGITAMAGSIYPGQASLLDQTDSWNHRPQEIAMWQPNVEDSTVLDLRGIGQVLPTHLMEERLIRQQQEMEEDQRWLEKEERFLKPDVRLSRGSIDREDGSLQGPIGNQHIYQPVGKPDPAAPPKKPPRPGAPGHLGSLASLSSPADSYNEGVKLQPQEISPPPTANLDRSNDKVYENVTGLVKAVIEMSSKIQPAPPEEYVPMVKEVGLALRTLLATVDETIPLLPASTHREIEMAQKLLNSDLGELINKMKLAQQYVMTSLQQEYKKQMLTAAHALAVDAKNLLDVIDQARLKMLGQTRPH

In the case of `CCOP(=O)(OCC)C1CCC(c2ccc(Nc3nc(Nc4ccccc4OC)ncc3C(F)(F)F)c3c2CN(C)C3=O)CC1` (mixture of isomers) [Example 193, Diethyl {4-[7-({2-[(2-methoxyphenyl)amino]-5-(trifluoromethyl)pyrimidin-4-yl}amino)-2-methyl-1-oxo-2,3-dihydro-1H-isoindol-4-yl]cyclohexyl}phosphonate], the IC50 on FAK [1] (setting [3]) and at FAK [2] was under 1 µM each time.

Take `CCOP(=O)(Cc1ccc(Nc2ncc(C(F)(F)F)c(Nc3ccc([C@H]4CC[C@H](O)CC4)c4c3C(=O)N(C)C4)n2)cc1)OCC` (stereo in doubt) [Example 92, Diethyl (4-{[4-{[7-(trans-4-hydroxycyclohexyl)-2-methyl-3-oxo-2,3-dihydro-1H-isoindol-4-yl]amino}-5-(trifluoromethyl)pyrimidin-2-yl]amino}benzyl)phosphonate]: the IC50 on FAK [1] (setting [4]) and against FAK [2] was under 1 µM in each case.

`CCOP(=O)(Cc1ccccc1Nc1ncc(C(F)(F)F)c(NCc2cccnc2N(C)S(C)(=O)=O)n1)OCC` [Example 3, Diethyl [2-({4-[({2-[methyl(methylsulfonyl)amino]pyridin-3-yl}methyl)amino]-5-(trifluoromethyl)pyrimidin-2-yl}amino)benzyl]phosphonate]: the IC50 is over 10 µM at FAK [1] (setting [5]), over 10 µM at FAK [1] (setting [6]) and under 1 µM at FAK [2].

`CC(C)P(=O)(Cc1ccc(Nc2ncc(C(F)(F)F)c(NCc3cccnc3N(C)S(C)(=O)=O)n2)cc1)C(C)C` [Example 8, N-[3-({[2-({4-[(Dipropan-2-ylphosphoryl)methyl]phenyl}amino)-5-(trifluoromethyl)pyrimidin-4-yl]amino}methyl)pyridin-2-yl]-N-methylmethanesulfonamide]: the concentration for half-maximal inhibition (IC50) at FAK [1] (setting [5]), on FAK [1] (setting [6]), on FAK [1] (setting [4]) and against FAK [2] was under 1 µM in each case.

As to `CC(C)P(=O)(Cc1cccc(Nc2ncc(C(F)(F)F)c(NCc3cccnc3N(C)S(C)(=O)=O)n2)c1)C(C)C` [Example 9, N-[3-({[2-({3-[(Dipropan-2-ylphosphoryl)methyl]phenyl}amino)-5-(trifluoromethyl)pyrimidin-4-yl]amino}methyl)pyridin-2-yl]-N-methylmethanesulfonamide], the IC50 at FAK [1] (setting [5]), at FAK [1] (setting [6]), at FAK [1] (setting [4]) and against FAK [2] was under 1 µM in each case.

Regarding `CCP(=O)(CC)Cc1ccc(Nc2ncc(C(F)(F)F)c(NCc3cccnc3N(C)S(C)(=O)=O)n2)cc1` [Example 10, N-[3-({[2-({4-[(diethylphosphoryl)methyl]phenyl}amino)-5-(trifluoromethyl)pyrimidin-4-yl]amino}methyl)pyridin-2-yl]-N-methylmethanesulfonamide], the IC50 on FAK [1] (setting [5]), at FAK [1] (setting [6]), on FAK [1] (setting [4]) and against FAK [2] was under 1 µM throughout.

As for `CCP(=O)(CC)Cc1cccc(Nc2ncc(C(F)(F)F)c(NCc3cccnc3N(C)S(C)(=O)=O)n2)c1` [Example 11, N-[3-({[2-({3-[(Diethylphosphoryl)methyl]phenyl}amino)-5-(trifluoromethyl)pyrimidin-4-yl]amino}methyl)pyridin-2-yl]-N-methylmethanesulfonamide], the half-inhibitory concentration (IC50) at FAK [1] (setting [5]), on FAK [1] (setting [6]), on FAK [1] (setting [4]) and against FAK [2] was under 1 µM in each case.

On to `CN(c1ncccc1CNc1nc(Nc2ccc(CP(C)(C)=O)cc2)ncc1C(F)(F)F)S(C)(=O)=O` [Example 12, N-[3-({[2-({4-[(Dimethylphosphoryl)methyl]phenyl}amino)-5-(trifluoromethyl)pyrimidin-4-yl]amino}methyl)pyridin-2-yl]-N-methylmethanesulfonamide], for which the 50% inhibitory concentration (IC50) at FAK [1] (setting [5]) is 1 to 10 µM; on FAK [1] (setting [6]) it was 1 to 10 µM; at FAK [1] (setting [4]), 1 to 10 µM; on FAK [2], under 1 µM.

`CN(c1ncccc1CNc1nc(Nc2cccc(CP(C)(C)=O)c2)ncc1C(F)(F)F)S(C)(=O)=O` [Example 13, N-[3-({[2-({3-[(Dimethylphosphoryl)methyl]phenyl}amino)-5-(trifluoromethyl)pyrimidin-4-yl]amino}methyl)pyridin-2-yl]-N-methylmethanesulfonamide]: the half-inhibitory concentration (IC50) at FAK [1] (setting [5]), on FAK [1] (setting [6]), on FAK [1] (setting [4]) and at FAK [2] was under 1 µM each time.

Consider `CN(c1ncccc1CNc1nc(Nc2ccc(P(C)(C)=O)cc2)ncc1C(F)(F)F)S(C)(=O)=O` [Example 14, N-[3-({[2-{[4-(Dimethylphosphoryl)phenyl]amino}-5-(trifluoromethyl)pyrimidin-4-yl]amino}methyl)pyridin-2-yl]-N-methylmethanesulfonamide], for which the IC50 at FAK [1] (setting [5]), on FAK [1] (setting [6]), at FAK [1] (setting [4]) and at FAK [2] was under 1 µM each time.

As to `CN(c1ncccc1CNc1nc(Nc2cccc(P(C)(C)=O)c2)ncc1C(F)(F)F)S(C)(=O)=O` [Example 15, N-[3-({[2-{[3-(Dimethylphosphoryl)phenyl]amino}-5-(trifluoromethyl)pyrimidin-4-yl]amino}methyl)pyridin-2-yl]-N-methylmethanesulfonamide], the IC50 at FAK [1] (setting [5]), at FAK [1] (setting [6]), on FAK [1] (setting [4]) and against FAK [2] was under 1 µM each time.

Regarding `CNC(=O)c1ccccc1Nc1nc(Nc2ccc(CP(C)(C)=O)cc2)ncc1C(F)(F)F` [Example 16, 2-{[2-({4-[(Dimethylphosphoryl)methyl]phenyl}amino)-5-(trifluoromethyl)pyrimidin-4-yl]amino}-N-methylbenzamide], the half-maximal inhibitory concentration (IC50) at FAK [1] (setting [5]), on FAK [1] (setting [6]), at FAK [1] (setting [4]) and on FAK [2] was under 1 µM throughout.

Turning to `CNC(=O)c1ccccc1Nc1nc(Nc2cccc(CP(C)(C)=O)c2)ncc1C(F)(F)F` [Example 17, 2-{2-[3-(Dimethylphosphinoylmethyl)phenylamino]-5-trifluoromethylpyrimidin-4-ylamino}-N-methylbenzamide], the concentration for half-maximal inhibition (IC50) on FAK [1] (setting [5]), at FAK [1] (setting [6]), on FAK [1] (setting [4]) and on FAK [2] was under 1 µM each time.

For the molecule `CNC(=O)c1ccccc1Nc1nc(Nc2ccc(P(C)(C)=O)cc2)ncc1C(F)(F)F` [Example 18, 2-{[2-{[4-(Dimethylphosphoryl)phenyl]amino}-5-(trifluoromethyl)pyrimidin-4-yl]amino}-N-methylbenzamide], the IC50 on FAK [1] (setting [5]), on FAK [1] (setting [6]), on FAK [1] (setting [4]) and against FAK [2] was under 1 µM throughout.

For the molecule `CCOP(=O)(Cc1ccc(Nc2ncc(C(F)(F)F)c(Nc3ccccc3C(=O)NC)n2)cc1)OCC` [Example 20, diethyl (4-{[4-{[2-(methylcarbamoyl)phenyl]amino}-5-(trifluoromethyl)pyrimidin-2-yl]amino}benzyl)phosphonate], the IC50 on FAK [1] (setting [5]), on FAK [1] (setting [6]) and against FAK [2] was under 1 µM each time.

As for `CCOP(=O)(OCC)C(C)(C)c1ccc(Nc2ncc(C(F)(F)F)c(Nc3ccccc3C(=O)NC)n2)cc1` [Example 21, Diethyl [2-(4-{[4-{[2-(methylcarbamoyl)phenyl]amino}-5-(trifluoromethyl)pyrimidin-2-yl]amino}phenyl)propan-2-yl]phosphonate], the IC50 at FAK [1] (setting [5]), at FAK [1] (setting [6]) and at FAK [2] was under 1 µM each time.

On to `CCOP(C)(=O)Cc1ccc(Nc2ncc(C(F)(F)F)c(Nc3ccccc3C(=O)NC)n2)cc1` (stereo not shown) [Example 22, Ethyl methyl(4-{[4-{[2-(methylcarbamoyl)phenyl]amino}-5-(trifluoromethyl)pyrimidin-2-yl]amino}benzyl)phosphinate], for which the IC50 at FAK [1] (setting [5]), on FAK [1] (setting [6]) and against FAK [2] was under 1 µM throughout.

Regarding `CCP(=O)(CC)Cc1cccc(Nc2ncc(C(F)(F)F)c(Nc3ccccc3C(=O)NC)n2)c1` [Example 23, 2-{[2-({3-[(Diethylphosphoryl)methyl]phenyl}amino)-5-(trifluoromethyl)pyrimidin-4-yl]amino}-N-methylbenzamide], the IC50 at FAK [1] (setting [5]), at FAK [1] (setting [6]), at FAK [1] (setting [4]) and at FAK [2] was under 1 µM in each case.

With `CCOP(=O)(Cc1ccc(Nc2ncc(C(F)(F)F)c(Nc3ccc(C4=CCN(C(N)=O)CC4)c4c3C(=O)N(C)C4)n2)c(OC)c1)OCC` [Example 99, Diethyl (4-{[4-{[7-(1-carbamoyl-1,2,3,6-tetrahydropyridin-4-yl)-2-methyl-3-oxo-2,3-dihydro-1H-isoindol-4-yl]amino}-5-(trifluoromethyl)pyrimidin-2-yl]amino}-3-methoxybenzyl)phosphonate], the IC50 at FAK [1] (setting [3]) is under 1 µM.

Regarding `CCOP(=O)(Cc1ccc(Nc2ncc(C(F)(F)F)c(Nc3ccc([C@H]4CC[C@@H](N5CCN(C(C)=O)CC5)CC4)c4c3C(=O)N(C)C4)n2)c(OC)c1)OCC` [Example 237, Diethyl (4-{[4-({7-[cis-4-(4-acetylpiperazin-1-yl)cyclohexyl]-2-methyl-3-oxo-2,3-dihydro-1H-isoindol-4-yl}amino)-5-(trifluoromethyl)pyrimidin-2-yl]amino}-3-methoxybenzyl)phosphonate], on FAK [1] (setting [3]), the IC50 was under 1 µM.

Regarding `CN1Cc2c(c(Nc3nc(Nc4ccc(CP5(=O)OCCCO5)cc4)ncc3C(F)(F)F)ccc2[C@H]2CC[C@H](O)CC2)C1=O` [compound 230], the IC50 at FAK [1] (setting [3]) is under 1 µM.
